This is an account of results in US7449484B2, “Compounds” (SmithKline Beecham Corporation, priority 2000, dated 2008).

For series [1], the system named is murine airpouch granuloma. In words: Murine Air Pouch Granuloma Model of angiogenesis in vivo. Set-up: species or system mice. To be noted: positive control. The source says: Measurement of Angiogenesis In Vivo—Murine Air Pouch Granuloma Model:
The murine airpouch granuloma model of chronic inflammation (Kimura et al., 1985, J. Pharmacobio-Dyn., 8:393-400; Colville-Nash et al., 1995, J. Pharm. and Exp. Ther., 274:1463-1472) whose disclosure is incorporated herein by reference in its entirety, is characterized by inflammatory cell influx, fibrous tissue proliferation and intense angiogenesis. […] In addition, angiogenesis can be accurately quantitated by a vascular casting method.
Day 1, mice are anesthetized using Aerrane (isoflurane) gas (5%) or other approved methods, after which 3 mls of air is injected into the dorsal subcutaneous tissue using a 27 g needle. Mice are allowed to recover. […]
When the granuloma is removed it is weighed and then dried for 3 days at 45° C. and reweighed. […] The carmine content is then determined against a carmine red standard curve (0.5 to 2 mg/ml) generated in extracted tissue from non carmine treated animals and read at 490 nm. Sample and standard values are determined typically using DeltaSoft Elisa analysis software (Biometallics Inc., Princeton, N.J.). […]
The effect of compounds on vascular density was typically measured for 6 days after induction of the granuloma. This time point has been determined to be at or near the peak of angiogenesis. […] Medroxyprogesterone had no effect on granuloma size as measured by dry weight.

As to medroxyprogesterone, the “maximum reduction (vascular density)” value in series [1] (measured 6 days after induction of the granuloma) came to 50%. In series [1] (murine air pouch granuloma), the “effect on granuloma size as measured by dry weight” value is listed as “no effect”.
The compound `CCOc1ccc2cc(-c3nc(C(C)(C)C)[nH]c3-c3ccncc3)ccc2c1` displayed a melting point of 258 to 259 °C.

Broadly, the melting point is the temperature of the solid-liquid transition.
